Results published in PMC11755562, “Peptide Inhibitor Assay for Allocating Functionally Important Accessible Sites Throughout a Protein Chain: Restriction Endonuclease EcoRI as a Model Protein System” (BioTech, 2024).
“Also recorded” adds a separate entry of the source.

Assays:
EcoRI [1] = molecular target: T1, EcoRI (Escherichia coli, UniProt P00642); assay: Peptide inhibitor assay (PIA): EcoRI digestion of pCRII-TOPO-OR23 plasmid, fluorescence intensity of the excised OR23 band on agarose gel; assay type: biochemical; details: 3 h; for level of inhibitory effect on EcoRI (in words): EcoRI:peptide 1:500, relative fluorescence intensity, n = 3
T1 construct: The first M is removed after translation in this protein; purchased New England Biolabs
T1 sequence (P00642 2-277): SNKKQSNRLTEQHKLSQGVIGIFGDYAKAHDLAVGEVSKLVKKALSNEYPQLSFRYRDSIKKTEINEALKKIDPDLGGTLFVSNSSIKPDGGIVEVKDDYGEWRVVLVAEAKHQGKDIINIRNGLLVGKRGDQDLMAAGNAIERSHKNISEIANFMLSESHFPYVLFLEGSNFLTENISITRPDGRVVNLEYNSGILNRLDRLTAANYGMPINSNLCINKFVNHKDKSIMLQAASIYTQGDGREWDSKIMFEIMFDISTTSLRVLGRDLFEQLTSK
Protocol: Peptide synthesis was performed by GenScript Japan (Tokyo, Japan). All peptides were confirmed to be more than 75% pure via high-performance liquid chromatography (HPLC) and to have theoretical molecular weights via mass spectrometry (MS). The peptides were dissolved in DMSO (dimethyl sulfoxide) and were prepared at 5.59 × 10^−9 mol/μL (5.59 mM). When 1.0 μL of this peptide mixture was mixed in a tube for the inhibition of EcoRI catalytic activity, the molar ratio of EcoRI to peptide was 1:500. This concentration in molar equivalence was used throughout this study unless otherwise noted.
Purified and concentrated EcoRI (20,000 U/mL, approximately 338 μg/mL, 1.12 × 10^−[…]) was obtained from New England Biolabs (Ipswich, MA, USA). To quantify and visualize the inhibitory effects of the peptides, the enzymatic reaction conditions were set so that at least three hours of incubation were required to completely digest the substrate plasmid DNA with EcoRI. To do so, we used a low Mg^2+ concentration (0.015 mM) in the reaction mixture in contrast to the optimum concentration of Mg^2+ for EcoRI (10 mM).
(§1) All master solutions and samples were prepared on ice. A single reaction tube contained the following common ingredients: autoclaved DNase-free RNase-free deionized H2O (12.5 μL) (Nippon Gene), 10× NE Buffer Mg^2+-free (2.0 μL), pCRII-TOPO-OR23 plasmid DNA (2.0 μL of 40 ng/μL solution), MgCl2 (1.5 μL of 0.20 mM solution), and EcoRI (1.0 μL). A master solution containing these ingredients without DMSO or a peptide was first prepared for the number of sample tubes. The master solution was aliquoted into 1.5 mL spin tubes (19.0 μL per tube). Then, 1.0 μL of DMSO or a peptide sample was added, and the mixture was incubated at 37 °C. A negative control with DMSO but without a peptide (“no peptide” control) was run in every assay. When the digestion efficiency was compared, another negative control with autoclaved DNase-free RNase-free H2O without EcoRI was prepared. After the reaction, the samples were quickly cooled on ice for ten minutes and then stored at −80 °C until agarose gel electrophoresis. The above protocol was conducted for all peptides (including BP19.5, BP19.5N, and BP19.5C) used in the present study unless otherwise noted.
To quantify EcoRI activity after incubation of a reaction mixture, digested pCRII-TOPO-OR23 plasmid DNA was examined via agarose gel electrophoresis. We first prepared a 25 mL solution of 1.0% agarose (Nippon Gene) in TAE (Tris-acetate-EDTA) buffer (Promega, Madison, WI, USA) to produce an agarose gel. An ethidium bromide solution (0.5 μL of 10 mg/mL) (Promega) was added before gelation. After incubation with EcoRI, the fluorescence intensity of the band of the excised OR23 fragment was measured via an ImageQuant LAS4000 (GE Healthcare Japan, Tokyo, Japan) with the following conditions: “Exposure Type”: Precision; “Exposure Time”: Manual 1/8 sec; “Sensitivity/Resolution”: Standard; and “Fluorescent Method”: Epi illumination; EtBr; UV (Trans UV) light; 6-5DF50 Filter; and F2.8 Iris.
For statistical analyses, Student’s t-test (unpaired and bi-sided), Dunnett’s test, and Pearson correlation analysis were performed via Microsoft Excel (Office 365) and JSTAT (Yokohama, Japan). The Dunnett’s test was performed for each experimental group that was examined simultaneously in the laboratory, in comparison to the “no peptide” control group that was examined simultaneously. The repeated measure mode of the Dunnett’s test was used on the assumption that there was no interaction between samples.

EcoRI [2] = molecular target: T1, EcoRI; assay: Nonspecific nuclease activity of EcoRI reaction mixture with peptide (plasmid DNA degradation); assay type: biochemical; details: EcoRI plus peptide 1:500, 3 h; n = 3
Protocol: A recombinant plasmid, pCRII-TOPO (Invitrogen, Waltham, MA, USA), containing a PCR fragment of the full-length cDNA (978 bp) of the mouse odorant receptor OR23 [82, 83, 84, 85, 86] at the EcoRI cloning site (GAATTC) was used as a DNA substrate for EcoRI. […] This pCRII-TOPO-OR23 plasmid was prepared from TOP10F’ Escherichia coli (Invitrogen) using ATP Plasmid Mini Kit (ATP Biotech, Taipei, ROC). The plasmid solution was prepared at 40 ng/μL by adding autoclaved DNase-free RNase-free deionized H2O (Nippon Gene, Tokyo, Japan). The DNA concentrations were measured with a Qubit fluorometer (Invitrogen).
as §1
This reaction mixture containing EcoRI and BP19.5 appeared to degrade the plasmid DNA entirely. […] The DNA concentration at 3 h was 3.297 ± 0.006 ng/μL without any peptide in the reaction mixture and 0.332 ± 0.003 ng/μL with BP19.5, indicating a statistically significant difference (n = 3; unpaired bi-sided Student’s t-test; p = 1.6 × 10^−11). […] Therefore, BP19.5 and its derivatives are likely to cause EcoRI to become a nonspecific nuclease. In other words, BP19.5 was likely a specificity/activity modifier of EcoRI instead of an inhibitor.

| Sequence | level of inhibitory effect on EcoRI (in words) (EcoRI [1]) | relative fluorescence intensity of excised OR23 fragment (EcoRI [1]; relative to no peptide, EcoRI:peptide 1:500 molar ratio, 37 °C, 0.015 mM Mg2+, mean of n = 3) | plasmid DNA degradation / nonspecific nuclease induction (agarose gel electrophoresis, in words) (EcoRI [2]) |
| --- | --- | --- | --- |
| NLCINKFVNHKDK [BP20] | especially notable; also recorded: strong inhibitory effect; also recorded: most effective | less than 0.3 | does not induce nuclease activity |
| AANYGMPINSNL [BP19] | did not show high inhibition | – | did not have such an induction ability |
